Experimental data published in PMC6768323, “Adverse Maternal, Fetal, and Postnatal Effects of Hexafluoropropylene Oxide Dimer Acid (GenX) from Oral Gestational Exposure in Sprague-Dawley Rats” (Environmental Health Perspectives, 2019).
Where “and” joins values, the source holds several entries; their conditions need not be identical. Equal values may be shown once.

System: PPAR signaling pathway genes, fetal liver
Experiment: Fetal liver (GD18) PPAR gene array, fold induction versus control; maternal oral dosing GD14-18; rows per gene in dose order 1, 3, 10, 30, 62.5, 125, 250, 500 mg/kg/d
Type: in vivo, Sprague-Dawley rats
Method: A total of three blocks of 15 dams per block were dosed once daily from GD14–18 with either water vehicle (control) or HFPO-DA to evaluate fetal and maternal effects (Figure 1A). The first block of dams was dosed with control, 62.5, 125, 250, or 500mg/kg HFPO-DA ( n=3 dams for each). The second and third blocks of dams were dosed with control, 1, 3, 10, or 30mg/kg HFPO-DA ( n=3 per dose per block). Total sample sizes were n=9 for control, n=6 for 1, 3, 10, 30mg/kg , and n=3 for 62.5, 125, 250, and 500mg/kg HFPO-DA. In the first two blocks, spanning the entire dose range, we evaluated fetal testis testosterone production, fetal testis gene expression, fetal and maternal liver gene expression, fetal body weight, and maternal serum thyroid hormone and lipid concentrations. In the third block, encompassing the lower dose range utilized here, we collected fetal plasma for measuring HFPO-DA concentrations. Across all three blocks we evaluated maternal weight gain during dosing, reproductive output (number of fetuses and resorptions), maternal serum HFPO-DA concentration, and maternal liver weight at necropsy.
For the first two blocks, spanning the full dose range, late gestation (GD18) dams were euthanized by decapitation at ∼2h after the final oral dose [ ∼0830–1000 hours Eastern Standard Time (EST)]. Trunk blood was collected and serum isolated via centrifugation ( 10,000×g for 15 min at 4°C) in vacutainer tubes, transferred to 1.5-mL microcentrifuge tubes and stored at −80°C . Dam liver weight was recorded and a sample of liver tissue was collected into a polypropylene microcentrifuge tube containing 500μL TRIzol Reagent (Invitrogen) on ice. Fetuses were removed and two randomly selected fetuses per litter were weighed. Fetal testes were collected from all male pups with a single testis from the first three males used for determination of ex vivo testosterone production and the remaining testes were homogenized and preserved in TRIzol Reagent for gene expression analysis. The liver was collected from a single, randomly selected fetus per dam/litter for gene expression analysis and transferred to a polypropylene microcentrifuge tube containing 500μL TRIzol Reagent (Invitrogen) on ice. Both dam and fetal liver samples were individually homogenized using a Bullet Blender (Next Advance) with 1-mm zirconium oxide beads, transferred to clean tubes, and stored at −80°C prior to RNA extraction (see below). Ex vivo fetal testis testosterone production was measured as previously reported ([Wilson et al. 2004b]) except the radioimmunoassay (RIA) utilized here was supplied by ALPCO (Catalog No. 72-TESTO-CT2, ALPCO). Briefly, one testis was isolated from each of three separate male fetuses in each litter and incubated in a humidified atmosphere at 37°C for 3 h in 500μL of M-199 media (phenol red–free; Hazelton Biologics, Inc.) supplemented with 10% dextran-coated charcoal-stripped fetal bovine serum (Hyclone Laboratories) in 24-well plates under gentle agitation. After incubation, media were removed and stored in siliconized microcentrifuge tubes at −80°C until RIA analyses, which were performed according to manufacturer specifications.
Gene expression in fetal testes and fetal/maternal livers was assessed using reverse transcriptase real-time PCR of cDNA synthesized from RNA extracted from sample homogenates. RNA extraction was conducted according to TRIzol Reagent manufacturer specifications using chloroform and isopropanol. Following extraction, RNA was purified using the RNeasy Mini Kit (Catalog No. 74104; Qiagen). RNA concentration and purity (260:280 ratio ≥1.8 ) were determined with a NanoDrop 2000 spectrophotometer (Thermo Scientific). For the fetal testes, a 96-well gene array plate was previously custom designed to contain 89 target genes and 3 housekeeping genes, an intra-assay control, a genomic DNA control, a reverse transcriptase control, and a positive PCR control [see Table S1; SABioscience; ([Hannas et al. 2012])]. […]

O=C(O)C(F)(OC(F)(F)C(F)(F)C(F)(F)F)C(F)(F)F (stereo not shown) [HFPO-DA, Hexafluoropropylene oxide dimer acid]
Acox3 (dose order): 1.1 fold and 1.3 fold and 1.2 fold and 1.0 fold | Acsl3 (dose order): 1.0 fold and 1.1 fold and 1.2 fold and 1.3 fold and 1.4 fold and 1.5 fold | Acsl4 (dose order): 1.0 fold and 1.2 fold and 1.5 fold and 1.6 fold and 1.7 fold | Acsl5 (dose order): 0.8 fold and 0.9 fold and 1.1 fold and 1.0 fold | Apoa1 (dose order): 1.1 fold and 1.2 fold and 0.9 fold and 1.0 fold and 1.5 fold | Apoa5 (dose order): 1.4 fold and 1.3 fold and 1.5 fold and 1.6 fold and 1.0 fold | Apoc3 (dose order): 1.0 fold and 1.1 fold and 1.3 fold and 0.9 fold and 1.2 fold and 1.4 fold | Apoe (dose order): 1.1 fold and 0.9 fold and 1.0 fold and 1.2 fold | Aqp7 (dose order): 1.0 fold and 1.3 fold and 1.5 fold and 1.6 fold and 1.7 fold and 1.8 fold | Cd36 (dose order): 0.8 fold and 0.9 fold | Clu (dose order): 1.1 fold and 1.4 fold and 1.3 fold and 1.2 fold | Creb1 (dose order): 1.0 fold and 1.1 fold and 0.9 fold and 0.8 fold | Crebbp (dose order): 1.0 fold and 1.1 fold and 0.9 fold | Cyp27a1 (dose order): 1.1 fold and 1.0 fold and 0.9 fold | Dgat1 (dose order): 1.1 fold and 1.2 fold and 1.4 fold and 1.5 fold | Eln (dose order): 1.6 fold and 1.0 fold and 1.3 fold and 1.1 fold and 1.5 fold and 1.4 fold and 1.2 fold | Ep300 (dose order): 1.0 fold and 1.2 fold and 0.9 fold | Fabp2 (dose order): 0.9 fold and 1.0 fold and 1.1 fold and 0.7 fold | Fabp3 (dose order): 1.0 fold and 1.2 fold and 1.1 fold and 0.8 fold | Fabp4 (dose order): 1.4 fold and 1.5 fold and 1.2 fold and 0.9 fold and 1.0 fold | Fabp5 (dose order): 1.1 fold and 1.0 fold and 1.3 fold and 1.4 fold and 1.5 fold and 1.8 fold | Fabp7 (dose order): 1.0 fold and 1.3 fold and 1.4 fold and 1.8 fold and 1.9 fold | Fads2 (dose order): 1.1 fold and 1.2 fold and 1.6 fold and 1.8 fold and 2.0 fold and 2.2 fold and 2.1 fold | Fgr (dose order): 0.9 fold and 1.3 fold and 1.0 fold and 1.1 fold and 0.8 fold | Gk (dose order): 1.4 fold and 1.9 fold and 1.7 fold and 2.0 fold and 1.0 fold and 1.2 fold | Hif1a (dose order): 1.0 fold and 1.1 fold and 1.2 fold | Hspd1 (dose order): 1.1 fold and 1.0 fold and 1.2 fold and 1.3 fold | Ilk (dose order): 1.0 fold and 1.2 fold and 1.1 fold | Klf10 (dose order): 1.0 fold and 1.1 fold and 1.5 fold and 1.7 fold and 1.6 fold and 1.4 fold | Lpin1 (dose order): 1.0 fold and 1.2 fold and 0.8 fold and 0.9 fold and 1.3 fold | Lpl (dose order): 1.0 fold and 1.1 fold and 1.2 fold and 1.4 fold and 1.3 fold and 1.5 fold | Med1 (dose order): 1.0 fold and 1.1 fold and 0.9 fold | Mmp9 (dose order): 1.2 fold and 1.5 fold and 1.0 fold and 1.1 fold and 0.9 fold | Ncoa3 (dose order): 1.0 fold and 1.3 fold and 0.9 fold | Ncoa6 (dose order): 1.0 fold and 1.1 fold and 0.9 fold | Nr1h3 (dose order): 1.1 fold and 1.2 fold and 1.0 fold | Pck2 (dose order): 0.9 fold and 1.1 fold and 1.0 fold | Pdpk1 (dose order): 0.9 fold and 1.1 fold and 0.8 fold and 1.0 fold | Pltp (dose order): 1.5 fold and 1.0 fold and 1.4 fold and 1.1 fold | Ppara (dose order): 1.1 fold and 1.2 fold and 0.9 fold and 1.4 fold and 1.3 fold | Ppard (dose order): 0.9 fold and 1.4 fold and 1.1 fold and 1.0 fold and 1.2 fold | Ppargc1a (dose order): 0.9 fold and 1.0 fold and 0.7 fold and 0.6 fold and 0.5 fold | Ppargc1b (dose order): 1.1 fold and 1.3 fold and 1.2 fold and 0.9 fold and 1.0 fold | Pprc1 (dose order): 1.0 fold and 1.1 fold and 0.9 fold and 1.2 fold | Pten (dose order): 0.9 fold and 1.0 fold and 1.1 fold and 0.8 fold | Rxra (dose order): 1.0 fold and 1.2 fold and 1.1 fold | Rxrb (dose order): 1.0 fold and 1.2 fold and 1.1 fold and 0.9 fold | Sirt1 (dose order): 0.9 fold and 1.0 fold and 0.8 fold | Slc27a1 (dose order): 1.0 fold and 1.1 fold and 0.9 fold | Slc27a4 (dose order): 1.0 fold and 1.2 fold and 0.9 fold | Slc27a5 (dose order): 1.2 fold and 1.1 fold and 0.9 fold and 1.0 fold | Slc27a6 (dose order): 1.4 fold and 1.1 fold and 1.0 fold and 1.3 fold and 1.7 fold and 1.5 fold | Smarcd3 (dose order): 1.2 fold and 1.0 fold and 0.9 fold and 1.1 fold | Sorbs1 (dose order): 1.2 fold and 1.5 fold and 1.3 fold and 0.9 fold and 1.1 fold and 1.0 fold | Tgs1 (dose order): 0.9 fold and 1.0 fold and 0.8 fold | Txnip (dose order): 0.9 fold and 1.1 fold and 1.2 fold | number of significantly up-regulated PPAR pathway genes (fetal liver, ANOVA p<0.0001): 28 genes | dose with up-regulated PPAR pathway gene expression in maternal and fetal livers (oral GD14-18): ≥ 1 mg/kg
